Measured values as given in patent US10370380B2, “Octahydropyrrolo[3,4-c]pyrrole derivatives and uses thereof” (Sunshine Lake Pharma Co., Ltd., priority 2015, dated 2019).

Experiments:
hERG channel = target: T1, hERG channel (Homo sapiens, UniProt Q12809); experiment: hERG fluorescence polarization assay (potential of inducing QT interval prolongation); assay type: binding
T1 construct: purchased Invitrogen
Method: The potential of the compound disclosed herein inducing QT interval prolongation was evaluated by detecting if the compound would block the hERG channel. The specific test method is as follows:
Precisely weighed compound disclosed herein was dissolved in DMSO to formulate a solution at the highest concentration of 10.0 mM, and then the solution was diluted to a initial concentration of 120.0 μM with hERG FP Assay Buffer (Invitrogen); the hERG Tracer Red stock solution (Invitrogen) and the positive control E-4031 stock solution (Invitrogen) were respectively diluted to initial concentrations of 4.0 nM and 120.0 μM with hERG FP Assay Buffer (Invitrogen). […]
The above-mentioned solution of the compound disclosed herein and E-4031 at the initial concentration of 120 μM were respectively diluted with hERG FP Assay Buffer 5-fold in series to provide 8 concentration of 120.0 μM, 24.0 μM, 4.8 μM, 960.0 nM, 192.0 nM, 38.4 nM, 7.7 nM and 1.5 nM. […] After that, the 384-well plate was put into an oscillator (PHMP-4, Grant-sio), in 25° C., 250 rpm, to incubate for 4 hours, and the fluorescence polarization values were measured by multi-function microplate reader (PHERAStarFS, BMG LABTECH) and corrected with the minimum and maximum fluorescence polarization values of E-4031, and the IC50 of the compound disclosed herein was calculated by GraphPad software. […]

[1] = Pharmacokinetic evaluation after intravenous or gavage administration to rats; assay type: in vivo, SD rats; conditions: rats; for AUC(0-inf): read-out: AUCINF; for AUC(0-t): read-out: AUClast; for Cmax: read-out: Cmax; for MRT inf: read-out: MRTINF; for half-life: read-out: T1/2 (converted)
Method: (§1) The compounds disclosed herein were administered in form of a saline solution containing 5% DMSO, 5% Kolliphor HS 15, 2% (2% HCl) and 88% Saline, or a solution containing 10% DMSO, 10% Kolliphor HS 15 and 80% physiological saline to the subject animals. For intravenous administration, the animals were administered with a dose of 1 mg/kg or 2 mg/kg, and vein blood samples (0.3 mL) were collected at the time points of 0.083, 0.25, 0.5, 1.0, 2.0, 4.0, 6.0, 8.0 and 24 h after drug administration; plasma samples were collected by centrifugation of the vein blood samples at 3000 rpm or 4000 rpm for 10 minutes, and stored at −20° C. or −70° C. For gavage administration, the animals were administered with a dose of 2.5 mg/kg or 5 mg/kg, and vein blood samples (0.3 mL) were collected at the time points of 0.25, 0.5, 1.0, 2.0, 4.0, 6.0, 8.0 and 24 h after drug administration; plasma samples were collected by centrifugation at 3000 rpm or 4000 rpm for 10 minutes, and stored at −20° C. or −70° C. The positive control is suvorexant.
(§2) The above plasma samples were analyzed by the LC-MS/MS system.

[2] = Stability in human liver microsome; assay type: in vitro ADME; conditions: microsomes, pH 4, human liver microsome 0.5 mg/mL, 1 μM, 37° C., NADPH
Method: A mixture of the compound of the invention and human liver microsome in 0.1 M potassium phosphate buffer (containing 1.0 mM EDTA, pH=4) was incubated at 37° C., the sample concentrations at different incubation times were measured, and then the half life of the compound was calculated by plotting “the relative amount of the compound” against “incubation time” by using software GraphPad Prism 5.01, and intrinsic clearance was calculated. The experiment system shown as table 5:
The sample was analyzed by LC/MS/MS (ESI […] source and waters xbridge C18 EB-A-1420 chromatographic column were adopted), the mobile phases were an aqueous solution with 2 mM ammonium formate and 0.1% formic acid (mobile phase A) and an methanol solution with 2 mM ammonium formate and 0.1% formic acid (mobile phase B), the flow rate was 0.4 mL/min; the column temperature was 40° C. The ratio of the sample peak area to the internal standard peak area was obtained through LC/MS/MS analysis, the content of the compound at 0 time point was as 100%, the relative content of the compound at each time point was calculated. The half life of the compound was calculated by plotting “the relative amount of the compound” against “incubation time”, and intrinsic clearance was calculated.
The positive control is suvorexant.

[3] = Pharmacokinetic evaluation after intravenous or gavage administration to dogs; assay type: in vivo, Beagle dogs; conditions: dogs; for AUC(0-inf): read-out: AUCINF; for AUC(0-t): read-out: AUClast; for Cmax: read-out: Cmax; for MRT inf: read-out: MRTINF; for half-life: read-out: T1/2 (converted)
Method: as §1, §2

[4] = beagle, dog, in vivo, iv, 1 mg/kg
[5] = beagle, dog, in vivo, po, 5 mg/kg

T1 sequence (Q12809 whole entry): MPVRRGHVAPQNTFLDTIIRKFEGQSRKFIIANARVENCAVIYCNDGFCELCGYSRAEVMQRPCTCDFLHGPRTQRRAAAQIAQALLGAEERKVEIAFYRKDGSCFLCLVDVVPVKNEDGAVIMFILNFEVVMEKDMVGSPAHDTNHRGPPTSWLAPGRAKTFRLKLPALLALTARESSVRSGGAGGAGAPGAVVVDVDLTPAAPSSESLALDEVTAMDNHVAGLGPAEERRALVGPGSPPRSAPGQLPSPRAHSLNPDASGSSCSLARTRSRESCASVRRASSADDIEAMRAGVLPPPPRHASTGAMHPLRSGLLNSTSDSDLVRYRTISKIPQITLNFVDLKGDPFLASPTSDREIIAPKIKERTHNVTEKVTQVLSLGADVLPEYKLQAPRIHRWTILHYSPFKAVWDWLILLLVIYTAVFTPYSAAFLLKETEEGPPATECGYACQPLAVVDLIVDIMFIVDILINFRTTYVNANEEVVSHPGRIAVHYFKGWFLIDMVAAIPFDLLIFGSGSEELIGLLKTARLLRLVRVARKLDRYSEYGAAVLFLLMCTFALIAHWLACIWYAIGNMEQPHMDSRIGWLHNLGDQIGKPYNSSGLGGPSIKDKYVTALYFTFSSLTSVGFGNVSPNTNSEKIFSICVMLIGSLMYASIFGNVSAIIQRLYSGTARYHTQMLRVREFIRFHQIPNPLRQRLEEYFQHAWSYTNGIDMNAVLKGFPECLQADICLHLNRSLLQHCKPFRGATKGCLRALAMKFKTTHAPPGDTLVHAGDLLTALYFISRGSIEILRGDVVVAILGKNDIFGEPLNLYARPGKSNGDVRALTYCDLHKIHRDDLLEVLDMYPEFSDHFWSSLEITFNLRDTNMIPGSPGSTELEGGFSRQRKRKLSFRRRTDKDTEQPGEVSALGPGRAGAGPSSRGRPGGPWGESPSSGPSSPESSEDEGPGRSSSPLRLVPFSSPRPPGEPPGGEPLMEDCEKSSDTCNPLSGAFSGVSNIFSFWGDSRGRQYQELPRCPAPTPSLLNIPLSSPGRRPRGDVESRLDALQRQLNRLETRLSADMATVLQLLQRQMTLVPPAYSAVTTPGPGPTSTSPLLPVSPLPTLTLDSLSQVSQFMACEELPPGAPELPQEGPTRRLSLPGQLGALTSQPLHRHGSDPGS

Cc1ccc(-n2nccn2)c(C(=O)N2CCN(c3nc4cc(Cl)ccc4o3)CC[C@H]2C)c1 [suvorexant, reference compound]
IC50 (hERG channel): 1790 nM
AUC(0-inf) ([1]; SD, rat, in vivo, iv, 2 mg/kg): 655 ng·h/mL
AUC(0-t) ([1]; SD, rat, in vivo, iv, 2 mg/kg): 655 ng·h/mL
clearance ([1]; SD, rat, in vivo, iv, 2 mg/kg, read-out: Cl): 51.2 mL/min/kg
Cmax ([1]; SD, rat, in vivo, iv, 2 mg/kg): 784 ng/mL
MRT inf ([1]; SD, rat, in vivo, iv, 2 mg/kg): 0.708 h
half-life ([1]; SD, rat, in vivo, iv, 2 mg/kg): 0.569 h
Vd ([1]; SD, rat, in vivo, iv, 2 mg/kg, read-out: Vss): 2.17 L/kg
AUC(0-inf) ([1]; SD, rat, in vivo, po, 5 mg/kg): 530 ng·h/mL
AUC(0-t) ([1]; SD, rat, in vivo, po, 5 mg/kg): 528 ng·h/mL
Cmax ([1]; SD, rat, in vivo, po, 5 mg/kg): 249 ng/mL
MRT inf ([1]; SD, rat, in vivo, po, 5 mg/kg): 1.95 h
half-life ([1]; SD, rat, in vivo, po, 5 mg/kg): 0.99 h
F ([1]; po, 5 mg/kg): 32.4%
half-life at 1 μM ([2]; read-out: Half life): 9.85 min
CLint scaled at 1 μM ([2]; read-out: intrinsic clearance): 176 mL/min/kg
AUC(0-inf) [3, 4]: 5960 ng·h/mL
AUC(0-t) [3, 4]: 5750 ng·h/mL
clearance ([3]; beagle, dog, in vivo, iv, 1 mg/kg, read-out: Cl): 2.82 mL/min/kg
Cmax [3, 4]: 2100 ng/mL
MRT inf [3, 4]: 5.39 h
half-life [3, 4]: 5.79 h
Vd ([3]; beagle, dog, in vivo, iv, 1 mg/kg, read-out: Vss): 0.919 L/kg
AUC(0-inf) [3, 5]: 14300 ng·h/mL
AUC(0-t) [3, 5]: 13600 ng·h/mL
Cmax [3, 5]: 1640 ng/mL
MRT inf [3, 5]: 7.2 h
half-life [3, 5]: 5.71 h
F ([3]; po, 5 mg/kg): 48%
